Source: patent US20110105515A1, “TARGETING THE ONCOPROTEIN NUCLEOPHOSMIN” (President and Fellows of Harvard College, priority 2007, published 2011)

How the values were obtained:
K-562 = experiment: cells; conditions: Homo sapiens, K562, 48 h; for CC50: read-out: LC50
MOLT-4 = experiment: cells; conditions: Homo sapiens, MOLT-4, 48 h; for CC50: read-out: LC50
NCI-H460 = experiment: cells; conditions: Homo sapiens, NCI-H460, 48 h
NCI-H522 = experiment: cells; conditions: Homo sapiens, NCI-H522, 48 h; for CC50: read-out: LC50
COLO 205 = experiment: cells; conditions: Homo sapiens, COLO 205, 48 h; for CC50: read-out: LC50
HCC-2998 = experiment: cells; conditions: Homo sapiens, HCC 2998, 48 h; for CC50: read-out: LC50
LOX IMVI = experiment: cells; conditions: Homo sapiens, 48 h; for CC50: read-out: LC50
SK-MEL-28 = experiment: cells; conditions: Homo sapiens, SK-MEL-28, 48 h; for CC50: read-out: LC50
SK-MEL-5 = experiment: cells; conditions: Homo sapiens, SK-MEL-5, 48 h; for CC50: read-out: LC50
UACC62 = experiment: cells; conditions: Homo sapiens, UACC-62, 48 h; for CC50: read-out: LC50
NCI/ADR-RES = experiment: cells; conditions: Homo sapiens, 48 h; for CC50: read-out: LC50
T-47D = experiment: cells; conditions: Homo sapiens, T47D, 48 h
CAKI-1 = experiment: NCI 60 cell lines, SRB assay: CAKI-1; format: cell-based, human; conditions: CAKI-1 (Renal Cancer), 48 hours
Method: The human tumor cell lines were grown in RPMI 1640 medium containing 5% fetal bovine serum (FBS) and 2 mM L-glutamine. The cells were inoculated into 96 well microtiter plates in 100 μL volumes at plating densities ranging from 5000 to 40000 cells/well depending on the doubling time of each individual cell line. After cell inoculation, the microtiter plates were incubated at 37° C., 5% CO2, 95% air, and 100% relative humidity for 24 hours prior to addition of the test compound. The following day, two plates of each cell line were fixed in situ with TCA to represent a measurement of cell population for each cell line at the time of sample addition (Tz). Each of the test compounds was dissolved in dimethyl sulfoxide at 400-times the desired final maximum test concentration, and the resulting solutions were stored frozen prior to use. At the time of sample addition, an aliquot of frozen concentrate was thawed and diluted to twice the desired final maximum test concentration with complete medium containing 50 μg/mL gentamicin. Additional four 10-fold serial dilutions were prepared to provide a total of five sample concentrations plus control. Aliquots of 100 μL of these different concentrations were added to the appropriate microtiter wells already containing 100 μL of medium, making up the required final sample concentrations. […] Bound stain was subsequently solubilized with 10 mM trizma base, and the absorbance was read on an automated plate reader at a wavelength of 515 nm. […] Using the seven absorbance measurements [time zero (Tz), control growth (C), and test growth in the presence of drug at the five concentration levels (Ti)], the percentage growth was calculated at each of the sample concentration levels. […] The test compound concentration resulting in total growth inhibition was calculated from Ti=Tz. […] In the event when the effect was not reached or was exceeded, the value for the respective parameter was expressed as greater or less than the maximum or minimum concentration tested.

SK-MEL-2 = experiment: cells; conditions: Homo sapiens, SK-MEL-2, 48 h
IGROV1 = experiment: cells; conditions: Homo sapiens, IGROV-1, 48 h
RXF 393 = experiment: cells; conditions: Homo sapiens, RXF 393, 48 h
PC-3 = experiment: cells; conditions: Homo sapiens, PC-3, 48 h

Structure (SMILES): Cc1cc(C)cc(-c2ccc3c(c2)[N+]([O-])=C2C3=C[C@@]34NC(=O)C5(CCCN5C3=O)CC4C2(C)C)c1 (some centres unmarked) [Biphenyl Analogue]
- GI50 (K-562): 124 nM
- CC50 (K-562): > 100 µM
- GI50 (MOLT-4): 159 nM
- CC50 (MOLT-4): 79.1 µM
- GI50 (NCI-H460): 326 nM
- GI50 (NCI-H522): 66.2 nM
- CC50 (NCI-H522): 1160 nM
- GI50 (COLO 205): 128 nM
- CC50 (COLO 205): 526 nM
- GI50 (HCC-2998): 269 nM
- CC50 (HCC-2998): 3.5 µM
- GI50 (LOX IMVI): 139 nM
- CC50 (LOX IMVI): 534 nM
- GI50 (SK-MEL-28): 252 nM
- CC50 (SK-MEL-28): 3.77 µM
- GI50 (SK-MEL-5): 166 nM
- CC50 (SK-MEL-5): 629 nM
- GI50 (UACC62): 161 nM
- CC50 (UACC62): 1.85 µM
- GI50 (NCI/ADR-RES): 992 nM
- CC50 (NCI/ADR-RES): 5.18 µM
- GI50 (T-47D): 57.6 nM

Structure (SMILES): CN(C)c1cccc2c(S(=O)(=O)NCCCCCCCCCCOc3ccc4c(c3)[N+]([O-])=C3C4=C[C@@]45NC(=O)C6(CCCN6C4=O)CC5C3(C)C)cccc12 (some centres unmarked) [Dansyl Analogue]
- GI50 (CAKI-1): 426 nM
- TGI (CAKI-1): 2.79 µM
- CC50 (CAKI-1; read-out: LC50 (the source's name)): 20.8 µM

Structure (SMILES): [2H]On1c2c(c3ccc4c(c31)C=CC(C)(C)O4)C(OC([2H])([2H])[2H])[C@@]13NC(=O)C4(CCCN4C1=O)CC3C2(C)C (some centres unmarked) [Deuterated Methanol Adduct]
- GI50 (K-562): 576 nM
- CC50 (K-562): > 100 µM
- GI50 (MOLT-4): 229 nM
- CC50 (MOLT-4): 8.56 µM
- GI50 (NCI-H460): 1800 nM
- CC50 (NCI-H460; read-out: LC50): 7.17 µM
- GI50 (NCI-H522): 431 nM
- CC50 (NCI-H522): 4820 nM
- GI50 (COLO 205): 336 nM
- CC50 (COLO 205): 4450 nM
- GI50 (HCC-2998): 692 nM
- CC50 (HCC-2998): 4.71 µM
- GI50 (LOX IMVI): 969 nM
- CC50 (LOX IMVI): 4630 nM
- GI50 (SK-MEL-2): 901 nM
- CC50 (SK-MEL-2; read-out: LC50): 5.39 µM
- GI50 (SK-MEL-28): 457 nM
- CC50 (SK-MEL-28): 4.37 µM
- GI50 (SK-MEL-5): 1410 nM
- CC50 (SK-MEL-5): 5230 nM
- GI50 (UACC62): 549 nM
- CC50 (UACC62): 4.39 µM
- GI50 (IGROV1): 743 nM
- CC50 (IGROV1; read-out: LC50): 4.68 µM
- GI50 (RXF 393): 283 nM
- CC50 (RXF 393; read-out: LC50): 2050 nM
- GI50 (PC-3): 619 nM
- CC50 (PC-3; read-out: LC50): 5.12 µM
- GI50 (NCI/ADR-RES): 2610 nM
- CC50 (NCI/ADR-RES): 39.4 µM
- GI50 (T-47D): 142 nM
